# Measurements reported in US8309577B2, “Quinuclidine compounds as α-7 nicotinic acetylcholine receptor ligands” (Bristol-Myers Squibb Company, priority 2008, dated 2012).
# Like-named read-outs stand apart in the source and are kept apart here.
# Molecular target: T1, α-7 nicotinic acetylcholine receptor channel expressed in HEK 293 cells (Rattus norvegicus, UniProt Q05941)
# T1 construct: expressed in transfected cells
# Assay: Ca2+-sensitive fluorescence-based FLIPR assay, α7 nicotinic ACh receptor channel function (agonist)
# Assay type: cell-based
# Procedure: I) α7 Nicotinic Acetycholine Receptor Binding. Membranes were prepared for binding using HEK293 cells stably expressing the rat α7 nicotinic acetycholine receptor (rat α7 nAChR). Cells were homogenized at 4° C. in hypotonic lysis buffer consisting of 10 mM Tris (pH 7.4), 5 mM EDTA and protease inhibitors and centrifuged at 32000×g for 20 minutes. The pellet was washed once in membrane wash buffer consisting of 50 mM Tris (pH 7.4), 1 mM EDTA and protease inhibitors and centrifuged at 32000×g for 20 minutes. This pellet was then resuspended in assay buffer consisting 50 mM KH2PO4 (pH 7.4 at 25° C.), 1 mM EDTA, 0.005% Triton-X 100 and 0.1% (v/v) Sigma Protease Inhibitor Cocktail. Aliquots were then frozen in dry ice/ethanol and kept at −80° C. until the day of the assay. II) A Ca^2+-Sensitive, Fluorescence-Based Assay α-7 for Nicotinic Acetylcholine Receptor Channel Function In Mammalian Cells (“FLIPR”). Summary: Lead compounds are evaluated for agonist activity at […], α3β4, […], and α1β1δ1ε sub-types of nicotinic ACh receptor ion channels expressed in mammalian HEK 293 cells. Agonist potency and efficacy values are determined from kinetic fluorescence Ca^2+ influx measurements made using a 384 well FLIPR (Fluorescence Image Plate Reader). […] In this assay, channel expressing HEK cell lines seeded in 384 well assay plates are loaded with a membrane permeant fluorescent Ca^2+ indicator dye, whose 510 nm green emission signal increases in response to elevation of intracellular Ca^2+ concentration. The basal fluorescence from the cells is monitored in real time, followed by the acute addition of test compounds.
# Materials and Methods: Reagents: The acetomethoxy (AM) ester of the Ca^2+ indicator dye Fluo-4 was obtained from InVitrogen, (Carlsbad, Calif.). Acetylcholine and all buffer constituents were purchased from Sigma Chemical Company, St. Louis, Mo. G418 and Minimal Essential Medium were purchased from InVitrogen Life Technologies, Carlsbad, Calif. Fetal bovine serum was purchased from (InVitrogen, Carlsbad, Calif.).
# Cell Culture: HEK-293 cells were grown in Minimal Essential Medium containing 10% (v/v) fetal bovine serum at 37° C. in a 5% CO2 incubator. HEK-293 cells stably expressing the ion channels were grown in the same medium with the addition of 500 μg/ml G418.
# Ca^2+ flux assays of Ca^2+ channels expressed in HEK-293 cells: HEK-293 cells expressing the ion channels of interest were plated in 384 well, black-walled, clear-bottomed, poly-D-lysine coated plates at a density of ˜20,000 cells/well in 20 μl of Minimal Essential Medium containing 10% (v/v) fetal bovine serum and incubated for 2 days at 29° C. in a 5% CO2 incubator. Prior to assay, cells were loaded with the Fluo-4 AM ester. […] Dye loading was allowed to proceed for 90 minutes at room temperature at which time the dye loading solution was removed and replaced with 40 μl/well of Hanks buffer. Cells loaded with dye were loaded onto a FLIPR384 (Molecular Devices, Sunnyvale, Calif.). Fluo-4 dye was excited using the 488 nm line of an argon laser. Emission was filtered using a 540+/−30 nm bandpass filter. For evaluation of the effects of test compounds using the Ca^2+ flux assay, compounds to be tested were provided in assay ready plates. For nicotinic receptor ion channel expressing cells, the assay was initiated by the addition of 20 μl/well of Hanks buffer containing test compounds. For all assays, data were collected at 1 Hz for 10 seconds (baseline), at which time the compound containing stimulus buffers are added, and further measurements collected at 0.33 Hz for 3 min.
# Data Analysis: The statistical robustness of the nicotinic receptor Ca^2+ flux assays is determined from blanks and totals wells. […] The raw fluorescence units data files generated on the FLIPR plate reader are automatically exported and processed by in-house data analysis tools.
# [1] = FLIPR α7 activity rating (EC50, nM), Table 1, HEK 293 cells, agonist Ca2+ flux
# [2] = FLIPR α7 (EC50, nM), Table 1, HEK 293 cells, agonist Ca2+ flux
# T1 sequence (Q05941 23-502): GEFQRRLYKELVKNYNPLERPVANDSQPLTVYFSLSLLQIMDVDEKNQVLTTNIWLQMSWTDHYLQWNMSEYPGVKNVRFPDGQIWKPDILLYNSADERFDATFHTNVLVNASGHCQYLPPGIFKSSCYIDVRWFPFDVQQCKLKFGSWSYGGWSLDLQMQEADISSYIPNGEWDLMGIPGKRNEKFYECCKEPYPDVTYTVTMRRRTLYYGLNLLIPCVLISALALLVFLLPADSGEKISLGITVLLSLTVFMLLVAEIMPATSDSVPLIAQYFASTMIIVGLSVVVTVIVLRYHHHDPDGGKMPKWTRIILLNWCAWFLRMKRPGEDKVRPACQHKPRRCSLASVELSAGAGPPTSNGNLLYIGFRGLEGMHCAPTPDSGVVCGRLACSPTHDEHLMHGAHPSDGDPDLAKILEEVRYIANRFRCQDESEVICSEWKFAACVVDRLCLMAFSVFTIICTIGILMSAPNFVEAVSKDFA
SMILES,EC50 [1] [nM],EC50 [nM],EC50 [2] [nM]
"Fc1ccc2c(NC3=NC[C@@]4(CN5CCC4CC5)O3)n[nH]c2c1 [Example 26, (R)—N-(6-Fluoro-1H-indazol-3-yl)-4H-1′-azaspiro[oxazole-5,3′-bicyclo[2.2.2]octan]-2-amine]",< 100,,
"c1ccc(-c2cncc(NC3=NC[C@@]4(CN5CCC4CC5)O3)c2)cc1 [Example 28, (R)—N-(5-Phenylpyridin-3-yl)-4H-1′-azaspiro[oxazole-5,3′-bicyclo[2.2.2]octan]-2-amine]",1000 to 100000,4010,
"c1ccc(-c2cc(NC3=NC[C@@]4(CN5CCC4CC5)O3)ccn2)cc1 [Example 29, (R)—N-(2-Phenylpyridin-4-yl)-4H-1′-azaspiro[oxazole-5,3′-bicyclo[2.2.2]octan]-2-amine]",100 to 1000,,
"c1ccc(-c2cccc(NC3=NC[C@@]4(CN5CCC4CC5)O3)n2)cc1 [Example 30, (R)—N-(6-Phenylpyridin-2-yl)-4H-1′-azaspiro[oxazole-5,3′-bicyclo[2.2.2]octan]-2-amine]",100 to 1000,,
"Cn1nc(NC2=NC[C@@]3(CN4CCC3CC4)O2)c2ccc(OC(F)F)cc21 [Example 31, (R)—N-(6-(Difluoromethoxy)-1-methyl-1H-indazol-3-yl)-4H-1′-azaspiro[oxazole-5,3′-bicyclo[2.2.2]octan]-2-amine]",100 to 1000,,
"FC(F)Oc1ccc2nc(NC3=NC[C@@]4(CN5CCC4CC5)O3)sc2n1 [Example 32, (R)—N-(5-(Difluoromethoxy)thiazolo[5,4-b]pyridin-2-yl)-4H-1′-azaspiro[oxazole-5,3′-bicyclo[2.2.2]octan]-2-amine]",100 to 1000,,
"c1nc(N2CCCC2)cnc1NC1=NC[C@@]2(CN3CCC2CC3)O1 [Example 34, (R)—N-(5-(Pyrrolidin-1-yl)pyrazin-2-yl)-4H-1′-azaspiro[oxazole-5,3′-bicyclo[2.2.2]octan]-2-amine]",1000 to 100000,,
"O=C1CCCN1c1cnc(NC2=NC[C@@]3(CN4CCC3CC4)O2)cn1 [Example 35, (R)-1-(5-(4H-1′-Azaspiro[oxazole-5,3′-bicyclo[2.2.2]octane]-2-ylamino)pyrazin-2-yl)pyrrolidin-2-one]",1000 to 100000,4030,
"c1cncc(-c2cnc(NC3=NC[C@@]4(CN5CCC4CC5)O3)cn2)c1 [Example 36, (R)—N-(5-(Pyridin-3-yl)pyrazin-2-yl)-4H-1′-azaspiro[oxazole-5,3′-bicyclo[2.2.2]octan]-2-amine]",100 to 1000,,
"COc1ccc(-c2cnc(NC3=NC[C@@]4(CN5CCC4CC5)O3)cn2)cn1 [Example 37, (R)—N-(5-(6-Methoxypyridin-3-yl)pyrazin-2-yl)-4H-1′-azaspiro[oxazole-5,3′-bicyclo[2.2.2]octan]-2-amine]",1000 to 100000,,
"COc1ccc2nc(NC3=NC[C@@]4(CN5CCC4CC5)O3)cnc2c1 [Example 38, (R)—N-(6-Methoxyquinoxalin-2-yl)-4H-1′-azaspiro[oxazole-5,3′-bicyclo[2.2.2]octan]-2-amine]",< 100,,
"FC(F)Oc1cnc(NC2=NC[C@@]3(CN4CCC3CC4)O2)nc1 [Example 39, (R)—N-(5-(Difluoromethoxy)pyrimidin-2-yl)-4H-1′-azaspiro[oxazole-5,3′-bicyclo[2.2.2]octan]-2-amine]",< 100,,
"Cc1cnc(NC2=NC[C@@]3(CN4CCC3CC4)O2)nc1C [Example 40, (R)—N-(4,5-Dimethylpyrimidin-2-yl)-4H-1′-azaspiro[oxazole-5,3′-bicyclo[2.2.2]octan]-2-amine]",< 100,,
"COc1ccc(-c2cc(NC3=NC[C@@]4(CN5CCC4CC5)O3)ncn2)cc1 [Example 42, (R)—N-(6-(4-Methoxyphenyl)pyrimidin-4-yl)-4H-1′-azaspiro[oxazole-5,3′-bicyclo[2.2.2]octan]-2-amine]",< 100,,
"COc1ccc(-c2cc(NC3=NC[C@@]4(CN5CCC4CC5)O3)ncn2)cn1 [Example 43, (R)—N-(6-(6-Methoxypyridin-3-yl)pyrimidin-4-yl)-4H-1′-azaspiro[oxazole-5,3′-bicyclo[2.2.2]octan]-2-amine]",< 100,,
"c1ccc2cc(-c3cc(NC4=NC[C@@]5(CN6CCC5CC6)O4)ncn3)ccc2c1 [Example 44, (R)—N-(6-(Naphthalen-2-yl)pyrimidin-4-yl)-4H-1′-azaspiro[oxazole-5,3′-bicyclo[2.2.2]octan]-2-amine]",100 to 1000,,
c1ccc(-c2csc(NC3=NCC4(CN5CCC4CC5)O3)n2)cc1 (stereo not shown) [Example 45],100 to 1000,,
c1cc2nc(NC3=NCC4(CN5CCC4CC5)O3)sc2cc1N1CCOCC1 (stereo not shown) [Example 46],1000 to 100000,2000,
Fc1ccc2sc(NC3=NCC4(CN5CCC4CC5)O3)nc2c1 (stereo not shown) [Example 47],< 100,,
FC(F)(F)c1ccc2nc(NC3=NCC4(CN5CCC4CC5)O3)sc2c1 (stereo not shown) [Example 48],100 to 1000,,790
FC(F)(F)Oc1ccc2nc(NC3=NCC4(CN5CCC4CC5)O3)sc2c1 (stereo not shown) [Example 49],1000 to 100000,3330,
Fc1cccc2sc(NC3=NCC4(CN5CCC4CC5)O3)nc12 (stereo not shown) [Example 50],< 100,,
Fc1cc2nc(NC3=NCC4(CN5CCC4CC5)O3)sc2cc1F (stereo not shown) [Example 52],100 to 1000,,325

SMILES,EC50 [1] [nM],EC50 [nM],EC50 [2] [nM]
COc1ccc2sc(NC3=NCC4(CN5CCC4CC5)O3)nc2c1 (stereo not shown) [Example 53],1000 to 100000,,
COc1cccc2sc(NC3=NCC4(CN5CCC4CC5)O3)nc12 (stereo not shown) [Example 54],1000 to 100000,,
COc1cc2nc(NC3=NCC4(CN5CCC4CC5)O3)sc2cc1OC (stereo not shown) [Example 55],1000 to 100000,,
c1ccc(-c2nnc(NC3=NCC4(CN5CCC4CC5)O3)s2)cc1 (stereo not shown) [Example 56],1000 to 100000,,
CN(C)C(=O)c1ccc2nc(NC3=NCC4(CN5CCC4CC5)O3)sc2c1 (stereo not shown) [Example 57],1000 to 100000,3900,
O=C(c1ccc2nc(NC3=NCC4(CN5CCC4CC5)O3)sc2c1)N1CCCCC1 (stereo not shown) [Example 58],1000 to 100000,,
Fc1ccc(-c2nnc(NC3=NCC4(CN5CCC4CC5)O3)s2)cc1 (stereo not shown) [Example 59],1000 to 100000,4240,
c1coc(-c2nnc(NC3=NCC4(CN5CCC4CC5)O3)s2)c1 (stereo not shown) [Example 60],1000 to 100000,2550,
Brc1ccc2nc(NC3=NCC4(CN5CCC4CC5)O3)sc2c1 (stereo not shown) [Example 61],100 to 1000,,
Cc1nc2cc(NC3=NCC4(CN5CCC4CC5)O3)ccc2s1 (stereo not shown) [Example 63],1000 to 100000,2600,
Clc1ccc2nc(NC3=NCC4(CN5CCC4CC5)O3)nn2c1 (stereo not shown) [Example 66],100 to 1000,,360
Cc1noc(C)c1NC1=NCC2(CN3CCC2CC3)O1 (stereo not shown) [Example 67],1000 to 100000,,
Cc1cnn(C)c1NC1=NCC2(CN3CCC2CC3)O1 (stereo not shown) [Example 68],1000 to 100000,,
N#Cc1ccc2nc(NC3=NCC4(CN5CCC4CC5)O3)sc2c1 (stereo not shown) [Example 70],100 to 1000,,
c1nc2cc(NC3=NCC4(CN5CCC4CC5)O3)ccc2s1 (stereo not shown) [Example 71],1000 to 100000,,
c1nc2ccc(NC3=NCC4(CN5CCC4CC5)O3)cc2s1 (stereo not shown) [Example 72],1000 to 100000,,
c1ccc2ncc(NC3=NCC4(CN5CCC4CC5)O3)cc2c1 (stereo not shown) [Example 73],1000 to 100000,7550,
Cc1ccc2nc(NC3=NCC4(CN5CCC4CC5)O3)nn2c1 (stereo not shown) [Example 74],< 100,,
c1cnc2cc(NC3=NCC4(CN5CCC4CC5)O3)ccc2n1 (stereo not shown) [Example 75],1000 to 100000,,
COc1ccc2nc(NC3=NCC4(CN5CCC4CC5)O3)[nH]c2c1 (stereo not shown) [Example 76],100 to 1000,,
Fc1ccc2nc(NC3=NCC4(CN5CCC4CC5)O3)[nH]c2c1 (stereo not shown) [Example 77],100 to 1000,,355
c1cc2cn[nH]c2cc1NC1=NCC2(CN3CCC2CC3)O1 (stereo not shown) [Example 78],1000 to 100000,,
